Laboratory results as given in US20240116985A1, “STAPLED PEPTIDES AND METHODS THEREOF” (priority 2020, published 2024).
Converted amounts (≈) assume the structure as drawn. Where two headings read alike, the source gives them in different places.

Columns and labels:
[1] = molecular target: T1, full-length beta-Catenin (Uniprot ID P35222) (Homo sapiens, UniProt P35222); test: Fluorescence polarization IC50 (beta-catenin / 5FAM-TCF4 10-53 competition); assay type: binding
T1 construct: 10 nM full-length beta-Catenin (Uniprot ID P35222)
T1 sequence (P35222 1-781): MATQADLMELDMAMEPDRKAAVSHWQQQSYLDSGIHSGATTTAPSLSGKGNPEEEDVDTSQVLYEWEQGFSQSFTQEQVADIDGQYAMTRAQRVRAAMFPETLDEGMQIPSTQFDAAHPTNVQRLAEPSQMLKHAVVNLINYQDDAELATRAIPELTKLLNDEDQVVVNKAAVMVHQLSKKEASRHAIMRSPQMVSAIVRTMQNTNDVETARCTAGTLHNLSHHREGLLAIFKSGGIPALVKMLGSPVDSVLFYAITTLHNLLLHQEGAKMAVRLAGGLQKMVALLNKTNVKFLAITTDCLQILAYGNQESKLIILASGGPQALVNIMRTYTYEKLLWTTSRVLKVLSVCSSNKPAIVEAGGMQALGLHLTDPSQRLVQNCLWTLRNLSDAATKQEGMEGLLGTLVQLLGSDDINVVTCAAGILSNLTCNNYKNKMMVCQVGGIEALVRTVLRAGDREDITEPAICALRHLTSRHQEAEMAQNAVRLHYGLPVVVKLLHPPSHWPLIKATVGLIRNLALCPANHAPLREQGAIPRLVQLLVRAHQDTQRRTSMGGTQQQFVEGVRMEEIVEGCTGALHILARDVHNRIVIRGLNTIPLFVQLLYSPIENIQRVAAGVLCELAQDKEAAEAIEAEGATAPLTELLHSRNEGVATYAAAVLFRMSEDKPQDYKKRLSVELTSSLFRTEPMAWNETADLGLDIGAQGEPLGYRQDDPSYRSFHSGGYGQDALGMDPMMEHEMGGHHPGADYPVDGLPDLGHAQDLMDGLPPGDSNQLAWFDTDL

Solubility in PBS = assay type: physicochemical
Summary of the method: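 Steps: ultracentrifuge the peptide PBS solution, inject the supernatant on HPLC, inject a 50 μM peptide DMSO solution as reference, then calculate solubility as area ratio (PBS/DMSO) × 50 uM.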

[2] = molecular target: T2, beta-catenin/TCF4 engagement (Homo sapiens, UniProt P35222); test: Nano-BRET target engagement assay (B-cat-Halo & TCF4-Luc in HEK293 cells); assay type: cell-based
T2 construct: expressed in transfected cells; host or cells: HEK293
T2 sequence (P35222 1-781): T1 sequence (P35222 1-781)

CHI Log D procedure = assay type: physicochemical; details: pH 7.4, CHI Log D

Compound | IC50 ([1]; read-out: beta-Catenin FP IC50) [nM] | Solubility (Solubility in PBS) [µM] | IC50 ([2]; absolute IC50, read-out: NanoBRET Abs IC50) [nM] | chromatographic logD (CHI Log D procedure) | Solubility (Solubility in PBS; Solubility (uM)) [µM] | IC50 ([2]; read-out: NanoBRET IC50) [nM] | IC50 ([1]; fluorescence polarization, beta-catenin, read-out: FP EC50) [nM] | inhibition at 10 µM ([2]; HEK293, 10 uM, read-out: NanoBRET % inh @ 10 uM) [%] | IC50 ([2]; read-out: NanoBRET Abs IC50) [nM] | logD (CHI Log D procedure)
CC(=O)N1CCC[C@]12CC=CCCCC1(CCCC=CCCCOC(=O)N3CC[C@@](C(=O)N[C@@H](Cc4ccsc4)C(=O)N[C@@H](Cc4csc5ccccc45)C(=O)N[C@@H](CCC(N)=O)C(N)=O)(C3)NC(=O)[C@H](CC(N)=O)NC(=O)[C@H](Cc3ccccc3)NC(=O)[C@H](C)NC(=O)[C@H](C)NC(=O)[C@H](Cc3ccc(O)cc3)NC(=O)[C@H](CC(=O)O)NC1=O)NC(=O)[C@H](CC(C)(C)C)NC(=O)[C@H](CC(=O)O)NC2=O (stereo partly drawn) [I-842, Ac-PL3-Asp-Npg-B5-Asp-Tyr-Ala-Ala-Phe-Asn-PyrS2-3Thi-BztA-Gln-NH2] | 34 | 10 (≈ 19.7 µg/mL) | 47900 | 2.39 |  |  |  |  |  | 
CC(=O)N1CCC[C@]12CC=CCCCC1(CCCC=CCCCOC(=O)N3CC[C@@](C(=O)N[C@@H](Cc4ccsc4)C(=O)N[C@@H](Cc4csc5ccccc45)C(=O)N[C@@H](CCC(N)=O)C(N)=O)(C3)NC(=O)[C@H](CC(N)=O)NC(=O)[C@H](Cc3ccccc3)NC(=O)[C@H](C)NC(=O)[C@H](C)NC(=O)[C@H]([C@@H](C)O)NC(=O)[C@H](CC(=O)O)NC1=O)NC(=O)[C@H](CC(C)(C)C)NC(=O)[C@H](CC(=O)O)NC2=O (stereo partly drawn) [I-844, Ac-PL3-Asp-Npg-B5-Asp-Thr-Ala-Ala-Phe-Asn-PyrS2-3Thi-BztA-Gln-NH2] | 6 |  |  | 2.31 | 35 (≈ 66.6 µg/mL) | 10700 |  |  |  | 
CC(=O)N1CCC[C@]12CC=CCCCC1(CCCC=CCCCOC(=O)N3CC[C@@](C(=O)N[C@@H](Cc4ccsc4)C(=O)N[C@@H](Cc4csc5ccccc45)C(=O)N[C@@H](CCC(N)=O)C(N)=O)(C3)NC(=O)[C@H](CC(N)=O)NC(=O)[C@H](Cc3ccccc3)NC(=O)[C@H](C)NC(=O)[C@H](C)NC(=O)[C@H](CC(C)C)NC(=O)[C@H](CC(=O)O)NC1=O)NC(=O)[C@H](CC(C)(C)C)NC(=O)[C@H](CC(=O)O)NC2=O (stereo partly drawn) [I-846, Ac-PL3-Asp-Npg-B5-Asp-Leu-Ala-Ala-Phe-Asn-PyrS2-3Thi-BztA-Gln-NH2] | 56 |  |  | 2.42 | 18 (≈ 34.5 µg/mL) |  | 35 | 4.3 |  | 
CC(=O)N1CCC[C@]12CC=CCCCC1(CCCC=CCCCOC(=O)N3CC[C@@](C(=O)N[C@@H](Cc4ccsc4)C(=O)N[C@@H](Cc4csc5ccccc45)C(=O)N[C@@H](Cc4c[nH]cn4)C(N)=O)(C3)NC(=O)[C@H](CC(N)=O)NC(=O)[C@H](Cc3ccccc3)NC(=O)[C@H](C)NC(=O)[C@H](C)NC(=O)[C@H](CC(C)C)NC(=O)[C@H](CC(=O)O)NC1=O)NC(=O)[C@H](CC(C)(C)C)NC(=O)[C@H](CC(=O)O)NC2=O (stereo partly drawn) [I-847, Ac-PL3-Asp-Npg-B5-Asp-Leu-Ala-Ala-Phe-Asn-PyrS2-3Thi-BztA-His-NH2] | 28 | 10 (≈ 19.3 µg/mL) |  | 2.51 |  |  |  |  | > 20000 | 
CC(=O)N1CCC[C@]12CC=CCCCC1(CCCC=CCCCOC(=O)N3CC[C@@](C(=O)N[C@@H](Cc4ccsc4)C(=O)N[C@@H](Cc4csc5ccccc45)C(N)=O)(C3)NC(=O)[C@H](CC(N)=O)NC(=O)[C@H](Cc3ccccc3)NC(=O)[C@H](C)NC(=O)[C@H](C)NC(=O)[C@H](CC(N)=O)NC(=O)[C@H](CC(=O)O)NC1=O)NC(=O)[C@H](CC(C)(C)C)NC(=O)[C@H](CC(=O)O)NC2=O (stereo partly drawn) [I-857, Ac-PL3-Asp-Npg-B5-Asp-Asn-Ala-Ala-Phe-Asn-PyrS2-3Thi-BztA-NH2] | 15 | 10 (≈ 17.9 µg/mL) |  | 2.58 |  | 50600 |  |  | 30600 | 

More lines, now with the values ahead:

IC50 ([1]; read-out: beta-Catenin FP IC50) [nM] | Solubility (Solubility in PBS) [µM] | IC50 ([2]; absolute IC50, read-out: NanoBRET Abs IC50) [nM] | chromatographic logD (CHI Log D procedure) | Solubility (Solubility in PBS; Solubility (uM)) [µM] | IC50 ([2]; read-out: NanoBRET IC50) [nM] | IC50 ([1]; fluorescence polarization, beta-catenin, read-out: FP EC50) [nM] | inhibition at 10 µM ([2]; HEK293, 10 uM, read-out: NanoBRET % inh @ 10 uM) [%] | IC50 ([2]; read-out: NanoBRET Abs IC50) [nM] | logD (CHI Log D procedure) | Compound
34 |  |  | 2.54 | 18 (≈ 32.5 µg/mL) |  |  |  | > 20000 |  | CC(=O)N1CCC[C@]12CC=CCCCC1(CCCC=CCCCOC(=O)N3CC[C@@](C(=O)N[C@@H](Cc4ccsc4)C(=O)N[C@@H](Cc4csc5ccccc45)C(N)=O)(C3)NC(=O)[C@H](CC(N)=O)NC(=O)[C@H](Cc3ccccc3)NC(=O)[C@H](C)NC(=O)[C@H](C)NC(=O)[C@H](CCC(N)=O)NC(=O)[C@H](CC(=O)O)NC1=O)NC(=O)[C@H](CC(C)(C)C)NC(=O)[C@H](CC(=O)O)NC2=O (stereo partly drawn) [I-858, Ac-PL3-Asp-Npg-B5-Asp-Gln-Ala-Ala-Phe-Asn-PyrS2-3Thi-BztA-NH2]
22 | 10 (≈ 18.1 µg/mL) |  |  |  |  |  |  | > 20000 | 2.28 | CC(=O)N1CCC[C@]12CC=CCCCC1(CCCC=CCCCOC(=O)N3CC[C@@](C(=O)N[C@@H](Cc4ccsc4)C(=O)N[C@@H](Cc4csc5ccccc45)C(N)=O)(C3)NC(=O)[C@H](CC(N)=O)NC(=O)[C@H](Cc3ccccc3)NC(=O)[C@H](C)NC(=O)[C@H](C)NC(=O)[C@H](Cc3c[nH]cn3)NC(=O)[C@H](CC(=O)O)NC1=O)NC(=O)[C@H](CC(C)(C)C)NC(=O)[C@H](CC(=O)O)NC2=O (stereo partly drawn) [I-863, Ac-PL3-Asp-Npg-B5-Asp-His-Ala-Ala-Phe-Asn-PyrS2-3Thi-BztA-NH2]
12 | 10 (≈ 19.4 µg/mL) |  | 2.62 |  | 29100 |  |  | 40000 |  | CC(=O)N1CCC[C@]12CC=CCCCC1(CCCC=CCCCOC(=O)N3CC[C@@](C(=O)N[C@@H](Cc4ccsc4)C(=O)N[C@@H](Cc4csc5ccccc45)C(=O)N[C@@H](CCC(N)=O)C(N)=O)(C3)NC(=O)[C@H](CC(N)=O)NC(=O)[C@H](Cc3ccccc3)NC(=O)[C@H](C)NC(=O)[C@H](C)NC(=O)[C@H](Cc3c[nH]cn3)NC(=O)[C@H](CC(=O)O)NC1=O)NC(=O)[C@H](CC(C)(C)C)NC(=O)[C@H](CC(=O)O)NC2=O (stereo partly drawn) [I-864, Ac-PL3-Asp-Npg-B5-Asp-His-Ala-Ala-Phe-Asn-PyrS2-3Thi-BztA-Gln-NH2]
14 |  |  | 2.11 | 34 (≈ 73.4 µg/mL) |  |  |  | > 20000 |  | CC(=O)N1CCC[C@]12CC=CCCCC1(CCCC=CCCCOC(=O)N3CC[C@@](C(=O)N[C@@H](Cc4ccsc4)C(=O)N[C@@H](Cc4csc5ccccc45)C(=O)N[C@@H](CCC(N)=O)C(N)=O)(C3)NC(=O)[C@H](CC(N)=O)NC(=O)[C@H](Cc3ccccc3)NC(=O)[C@H](CCCCNC(=O)CCc3cccc4ccccc34)NC(=O)[C@H](C)NC(=O)[C@H](CC(=O)O)NC(=O)[C@H](CC(=O)O)NC1=O)NC(=O)[C@H](CC(C)(C)C)NC(=O)[C@H](CC(=O)O)NC2=O (stereo partly drawn) [I-884, Ac-PL3-Asp-Npg-B5-Asp-Asp-Ala-[1NapPr]Lys-Phe-Asn-PyrS2-3Thi-BztA-Gln-NH2]
32 |  |  | 2.39 | 43 (≈ 93.9 µg/mL) |  |  |  | > 20000 |  | CC(=O)N1CCC[C@]12CC=CCCCC1(CCCC=CCCCOC(=O)N3CC[C@@](C(=O)N[C@@H](Cc4ccsc4)C(=O)N[C@@H](Cc4csc5ccccc45)C(=O)N[C@@H](CCC(N)=O)C(N)=O)(C3)NC(=O)[C@H](CC(N)=O)NC(=O)[C@H](Cc3ccccc3)NC(=O)[C@H](CCCCNC(=O)C(C)(c3ccccc3)c3ccccc3)NC(=O)[C@H](C)NC(=O)[C@H](CC(=O)O)NC(=O)[C@H](CC(=O)O)NC1=O)NC(=O)[C@H](CC(C)(C)C)NC(=O)[C@H](CC(=O)O)NC2=O (stereo partly drawn) [I-885, Ac-PL3-Asp-Npg-B5-Asp-Asp-Ala-[22PhPr]Lys-Phe-Asn-PyrS2-3Thi-BztA-Gln-NH2]
